We go through nine compounds from US9566312B2, “Cyclic peptides and use as medicines” (priority 2012, dated 2017).

pIC50: −log10 of the molar value. Starred links: 1 amine or outer side, 2 acyl side, 3 side chain; linkers in the order of their positions; H or OH if unused. Non-standard residues stand in square brackets, D forms with d. Residues, ends and D or L forms follow the SMILES beside them. X44 = CC(C)N1CCN(C(=O)COC[C@@H](C)[C@@H](C(=O)[*:2])N(C)[*:1])CC1; X64 = COC[C@@H]1CN(C[C@@H](C)[C@@H](C(=O)[*:2])N(C)[*:1])CCO1; X66 = C[C@H](COCC(=O)N1CCN(C)CC1)[C@@H](C(=O)[*:2])N(C)[*:1]; X1 = COC[C@@H]1CN(C[C@H](C)[C@@H](C(=O)[*:2])N(C)[*:1])CCO1; X60 = C[C@H](CCCN1CC2CCC(C1)N2C)[C@@H](C(=O)[*:2])N(C)[*:1]; X52 = C[C@H](CCC(=O)N1CCOCC1)[C@@H](C(=O)[*:2])N(C)[*:1]; MeBmt = C/C=C/C[C@@H](C)[C@@H](O)[C@H](NC)C(=O)O; NMeL = CN[C@@H](CC(C)C)C(=O)O; NMeV = CN[C@H](C(=O)O)C(C)C; dNMeA = CN[C@H](C)C(=O)O; Abu = CC[C@H](N)C(=O)O

One test concerns the target CypF (Homo sapiens (Human), UniProt P30405). Description: Inhibitor binding to cyclophilin proteins by SPR, CypF. As to conditions: 1:1 binding model. How it is done: (§1) Method 1: Measuring Inhibitor Binding to Cyclophilin Proteins
(§2) Binding of inhibitors to expressed cyclophilins was determined using surface plasmon resonance (SPR) experiments. Briefly, avi-tagged cyclophilin proteins with mono-biotinylation were immobilized onto a Biotin CAPture chip (GE Healthcare, cat. #28920234). SPR experiments were carried out on an upgraded Biacore T200 system using a running buffer containing the inhibitor, 10 mM HEPES, pH 7.4, 150 mM NaCl, 0.05% P20, and 3% DMSO. Single-cycle kinetics measurements were used to study the interactions between cyclophilin inhibitors and different cyclophlins. Accordingly, compound at various concentrations was injected to the flow cells with a contact time of 1 min each at a flow rate of 50 μL/min. The final dissociation phase lasts for 10 min following the sample injection. Data was analyzed using Biacore T200 Evaluation Software Version 1.0 and a 1:1 binding model was applied to fit the data to obtain kon, koff, and KD.
Background: In SPR one partner is held on a chip, and binding of the other changes the refractive index at the surface.

A further test has as its target cyclophilin B (CypB) (Homo sapiens (Human), UniProt P23284). Description: Inhibitor binding to cyclophilin proteins by SPR, CypB. Also on record: unit not given here. As to conditions: 1:1 binding model. As for the experimental part:
as §1, §2

The target of a further test is cyclophilin A (CypA) (Homo sapiens (Human), UniProt P62937). Put plainly: Inhibitor binding to cyclophilin proteins by SPR, CypA. Also on record: unit not given here. As to conditions: 1:1 binding model.
Test [1] deals with organic anion transporting polypeptide 1B1 (OATP1B1) (Homo sapiens (Human), UniProt Q9Y6L6). Put plainly: OATP assay in CHO-OATP1B1 cells.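 Further: inhibition of probe substrate uptake into the cells, ten minutes exposure, accumulated substrate read by fluorescence once cells were lysed.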
Protocol: In order to determine whether the compounds of the present invention interact with hepatic transporters, experiments were carried out that compared the concentration-dependent inhibition toward the organic anion transporting polypeptide 1B1 (OATP1B1) and the multidrug resistance associated protein 2 (MRP2).
The cells were cultured in DMEM/F12 +10% FBS+2 mM Ala-Gln+1% Pen-Strep for a period of two days, and the media was changed one day post-seeding. Prior to the assay, media was aspirated and were washed −3× with HBSS+10 mM HEPES and the solution was equilibrated for 15 min in HBSS+10 mM HEPES. Solutions containing the inhibitor were prepared in HBSS+10 mM HEPES (up to 1% DMSO). […] After 10 min, the substrate or substrate/inhibitor solution was aspirated and the cells were washed 3× with HBSS+10 mM HEPES. The amount of the transported probe substrate was determined by fluorescent photometry after cell lysis, and the IC50 was derived from the concentration-response curve.
In test [2] the test system is genotype 1b subgenomic HCV replicon in Huh7.5 cells. The test is classed as cell-based, hepatitis C virus. As to conditions: genotype 1b replicon, 72 h incubation; read-out: RPLN-1b IC50. How it is done: Method 2: Measuring Inhibitory Effects in a HCV Replicon System
Susceptibility to compounds was analyzed in Huh7.5 cells containing genotype 1a or 1b subgenomic HCV replicons co-expressing a luciferase reporter gene. The original replicons, pFK389lucubineo_3_3′_ET and pH/SG-Neo(L+I), were licensed from ReBlicon GmbH (Germany) and Apath LLC (Saint Louis, Mo.), respectively. The firefly reporter gen was replaced by renilla luciferase reporter gene using standard molecular biology techniques as follows.
Generation of genotype 1b subgenomic replicon: The renilla […]-neomycin phosphotransferase cassette was amplified from pF9 cytomegalovirus (CMV) hRluc-Neo Flexi(R) (Promega) by PCR using Accuprime super mix II (Invitrogen) and a primer set of Ascl hRlucNeo Fwd and NotI hRluc Rev. These two primers have the following sequences and introduce restriction sites for subsequent cloning: Ascl hRlucNeo Fwd, 5 […] 3(Ascl site underlined) (SEQ. ID No. 1), and NotI hRluc Rev, 5[…] 3(NotI site underlined) (SEQ ID No. 2). The amplification product was subcloned into pCR2.1-TOPO (Invitrogen). The resulting plasmid was digested with Ascl and NotI, and the excised fragment (hRluc-Neo) was ligated with the Roche Quick Ligation Kit (Roche) into pFK1389lucubineo_3_3′_ET digested with the same enzymes.
The assay medium for both, luciferase reporter HCV replicon and cytotoxicity assays contains phenol red-free DMEM and lacks G418. […] Luciferase activity of compound treated cells is measured relative to DMSO treated cells after 72 h incubation using Renilla-Glo™ Luciferase Assay (Promega). Cytotoxicity (CC50) is analyzed using Cell Titer-Glo™ (Promega).

Test [3] has as its system peripheral blood mononuclear cells (PBMC). Description: Anti-proliferative or immunosuppressive activity, BrdU incorporation in PHA-stimulated PBMC. The test is classed as cell-based. As to conditions: PHA 3 μg/ml, 60 hour compound treatment; read-out: EMV PBMC IC50. As for the experimental part: Method 3: Measuring Anti-Proliferative or Immunosuppressive Activity
The potential anti-proliferative activity of compounds on T-cells was analyzed based on the amount of bromodesoxy uridine (BrdU) incorporated into DNA of fresh peripheral blood mononuclear cells (PBMC) using the BrdU ELISA kit (Roche). The assay is performed in 96-well plate format with 30,000 PBMCs seeded per well in X-VIVO 15 medium (Lonza). T-cell proliferation was stimulated by addition of 3 μg/ml phytohemagglutinin (PHA) in PBMCs obtained from two donors.
Background: Dividing cells build labelled thymidine or BrdU into new DNA.

Chain of organic anion transporting polypeptide 1B1 (OATP1B1) (Q9Y6L6 whole entry): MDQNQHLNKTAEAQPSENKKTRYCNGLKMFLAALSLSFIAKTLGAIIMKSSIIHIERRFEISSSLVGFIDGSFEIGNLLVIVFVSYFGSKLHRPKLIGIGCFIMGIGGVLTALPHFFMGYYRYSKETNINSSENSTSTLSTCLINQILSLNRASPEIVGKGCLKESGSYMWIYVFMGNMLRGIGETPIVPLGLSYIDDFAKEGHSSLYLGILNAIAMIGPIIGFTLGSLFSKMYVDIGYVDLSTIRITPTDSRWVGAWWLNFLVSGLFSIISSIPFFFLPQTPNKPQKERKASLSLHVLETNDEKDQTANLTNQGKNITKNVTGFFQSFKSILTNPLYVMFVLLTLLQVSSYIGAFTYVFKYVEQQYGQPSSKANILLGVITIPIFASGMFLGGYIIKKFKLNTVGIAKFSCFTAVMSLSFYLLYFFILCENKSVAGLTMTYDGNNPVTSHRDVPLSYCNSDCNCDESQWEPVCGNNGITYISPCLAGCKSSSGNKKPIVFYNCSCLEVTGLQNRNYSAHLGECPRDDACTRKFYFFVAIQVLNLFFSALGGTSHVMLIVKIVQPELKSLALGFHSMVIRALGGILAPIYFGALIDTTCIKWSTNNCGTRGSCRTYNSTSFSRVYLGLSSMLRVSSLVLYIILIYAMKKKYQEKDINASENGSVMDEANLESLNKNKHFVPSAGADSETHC
Chain of cyclophilin B (CypB) (P23284 34-216): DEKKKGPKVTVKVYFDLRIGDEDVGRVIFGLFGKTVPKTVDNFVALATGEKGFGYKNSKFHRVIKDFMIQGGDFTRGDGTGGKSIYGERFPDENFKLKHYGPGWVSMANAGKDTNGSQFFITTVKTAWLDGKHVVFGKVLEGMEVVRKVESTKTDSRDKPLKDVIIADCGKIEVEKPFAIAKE
Chain of cyclophilin A (CypA) (P62937 whole entry): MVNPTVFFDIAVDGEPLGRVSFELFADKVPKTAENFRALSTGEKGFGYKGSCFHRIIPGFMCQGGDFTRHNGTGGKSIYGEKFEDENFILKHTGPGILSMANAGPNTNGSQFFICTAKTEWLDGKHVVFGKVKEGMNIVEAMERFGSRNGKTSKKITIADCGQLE
Chain of CypF (P30405 30-207): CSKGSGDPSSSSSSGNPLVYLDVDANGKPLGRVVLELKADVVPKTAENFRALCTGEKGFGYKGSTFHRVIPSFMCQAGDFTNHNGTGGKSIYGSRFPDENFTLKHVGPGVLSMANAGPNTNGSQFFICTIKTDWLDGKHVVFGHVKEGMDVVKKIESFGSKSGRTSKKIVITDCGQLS

Usually pIC50 stands for the negative decadic logarithm of the IC50, by convention in mol/L. As to `C/C=C/C[C@@H](C)[C@@H](O)[C@H]1C(=O)N[C@@H](CC)C(=O)N(C)[C@H](C)C(=O)N(C)[C@@H]([C@H](C)COCC(=O)N2CCN(C(C)C)CC2)C(=O)N[C@@H](C(C)C)C(=O)N(C)[C@@H](CC(C)C)C(=O)N[C@@H](C)C(=O)N[C@H](C)C(=O)N(C)[C@@H](CC(C)C)C(=O)N(C)[C@@H](CC(C)C)C(=O)N(C)[C@@H](C(C)C)C(=O)N1C` [Compound 2.6.4, 3-[D-Ala]-4-[(2S,3S)-4-(2-(4-isopropylpiperazin-1-yl)-2-oxoethoxy)-3-methyl-2-(methylamino)butanoyl]-cyclosporin] (cyclo(A[dA][NMeL][NMeL][NMeV][MeBmt][Abu][dNMeA][X44]V[NMeL])), the CypF Kd at CypF was 0.0006 µM. On cyclophilin B (CypB), the “CypB Kd” value was 1.1. Also, at cyclophilin A (CypA), the “CypA Kd” value turned out to be 1.4. The negative-log IC50 (pIC50) in test [1] was 5.10.
On the same counts, the results for `C/C=C/C[C@@H](C)[C@@H](O)[C@H]1C(=O)N[C@@H](CC)C(=O)N(C)[C@H](C)C(=O)N(C)[C@@H]([C@H](C)COCC(=O)N2CCN(C)CC2)C(=O)N[C@@H](C(C)C)C(=O)N(C)[C@@H](CC(C)C)C(=O)N[C@@H](C)C(=O)N[C@H](C)C(=O)N(C)[C@@H](CC(C)C)C(=O)N(C)[C@@H](CC(C)C)C(=O)N(C)[C@@H](C(C)C)C(=O)N1C` [Compound 2.6.3, 3-[D-Ala]-4-[(2S,3S)-3-methyl-2-(methylamino)-4-(2-(4-methylpiperazin-1-yl)-2-oxoethoxy)butanoyl]-cyclosporin] (cyclo(A[dA][NMeL][NMeL][NMeV][MeBmt][Abu][dNMeA][X66]V[NMeL])) are 0.0005 µM, 0.8, 1.5 and 5.03.
At CypF, `CCCC[C@@H](C)[C@@H](O)[C@H]1C(=O)N[C@@H](CC)C(=O)N(C)[C@H](C)C(=O)N(C)[C@@H]([C@H](C)COCCN2CCOCC2)C(=O)N[C@@H](C(C)C)C(=O)N(C)[C@@H](CC(C)C)C(=O)N[C@@H](C)C(=O)N[C@H](C)C(=O)N(C)[C@@H](CC(C)C)C(=O)N(C)[C@@H](CC(C)C)C(=O)N(C)[C@@H](C(C)C)C(=O)N1C` [Compound 2.8.10, 1-dihydro-3-[D-Ala]-4-[(2S,3S)-3-methyl-2-(methylamino)-4-(2-morpholinoethoxy)butanoyl]-cyclosporin] registered a CypF Kd of 0.0011 µM. The “CypB Kd” value at cyclophilin B (CypB) stood at 1.2. Besides, the “CypA Kd” value on cyclophilin A (CypA) is given as 2.1. The pIC50 in test [2] is 6.96; in test [3], 4.84.
`C/C=C/C[C@@H](C)[C@@H](O)[C@H]1C(=O)N[C@@H](CC)C(=O)N(C)[C@H](C)C(=O)N(C)[C@@H]([C@H](C)CCC(=O)N2CCOCC2)C(=O)N[C@@H](C(C)C)C(=O)N(C)[C@@H](CC(C)C)C(=O)N[C@@H](C)C(=O)N[C@H](C)C(=O)N(C)[C@@H](CC(C)C)C(=O)N(C)[C@@H](CC(C)C)C(=O)N(C)[C@@H](C(C)C)C(=O)N1C` [Compound 2.14.4, 3-[D-Ala]-4-[(2S,3R)-3-methyl-2-(methylamino)-6-morpholino-6-oxohexanoyl]-cyclosporin] (cyclo(A[dA][NMeL][NMeL][NMeV][MeBmt][Abu][dNMeA][X52]V[NMeL])) had a CypF Kd on CypF of 0.0011 µM. In addition, at cyclophilin B (CypB), the “CypB Kd” value was 1.5. Further, the “CypA Kd” value on cyclophilin A (CypA) stood at 2.1. The same compound showed a pIC50 in test [1] of 5.32.
Consider `C/C=C/C[C@@H](C)[C@@H](O)[C@H]1C(=O)N[C@@H](CC)C(=O)N(C)[C@H](C)C(=O)N(C)[C@@H]([C@H](C)COCCN2CC(OC)C2)C(=O)N[C@@H](C(C)C)C(=O)N(C)[C@@H](CC(C)C)C(=O)N[C@@H](C)C(=O)N[C@H](C)C(=O)N(C)[C@@H](CC(C)C)C(=O)N(C)[C@@H](CC(C)C)C(=O)N(C)[C@@H](C(C)C)C(=O)N1C` [Compound 2.8.9, 3-[D-Ala]-4-[(2S,3S)-4-(2-(3-methoxyazetidin-1-yl)ethoxy)-3-methyl-2-(methylamino)butanoyl]-cyclosporin], for which, on CypF, the CypF Kd worked out at 0.0003 µM. Also, on cyclophilin B (CypB), the “CypB Kd” value amounted to 0.4. For the same compound, the “CypA Kd” value at cyclophilin A (CypA) turned out to be 0.6. Further, the pIC50 is 6.62 in test [2] and 5.04 in test [3].
The corresponding values for `C/C=C/C[C@@H](C)[C@@H](O)[C@H]1C(=O)N[C@@H](CC)C(=O)N(C)[C@H](C)C(=O)N(C)[C@@H]([C@@H](C)CN2CCO[C@H](COC)C2)C(=O)N[C@@H](C(C)C)C(=O)N(C)[C@@H](CC(C)C)C(=O)N[C@@H](C)C(=O)N[C@H](C)C(=O)N(C)[C@@H](CC(C)C)C(=O)N(C)[C@@H](CC(C)C)C(=O)N(C)[C@@H](C(C)C)C(=O)N1C` [Compound 2.17.11, 3-[D-Ala]-4-[(2S,3S)-4-((S)-2-(methoxymethyl)morpholino)-3-methyl-2-(methylamino)butanoyl]-cyclosporin] (cyclo(A[dA][NMeL][NMeL][NMeV][MeBmt][Abu][dNMeA][X1]V[NMeL])) are 0.0006 µM, 0.7, 1.1, 7.66 and 4.44.
For the compound `C/C=C/C[C@@H](C)[C@@H](O)[C@H]1C(=O)N[C@@H](CC)C(=O)N(C)[C@H](C)C(=O)N(C)[C@@H]([C@H](C)CCCN2CC3CCC(C2)N3C)C(=O)N[C@@H](C(C)C)C(=O)N(C)[C@@H](CC(C)C)C(=O)N[C@@H](C)C(=O)N[C@H](C)C(=O)N(C)[C@@H](CC(C)C)C(=O)N(C)[C@@H](CC(C)C)C(=O)N(C)[C@@H](C(C)C)C(=O)N1C` [Compound 2.19.3] (cyclo(A[dA][NMeL][NMeL][NMeV][MeBmt][Abu][dNMeA][X60]V[NMeL])), at CypF, the CypF Kd turned out to be 0.0003 µM. Besides, the “CypB Kd” value on cyclophilin B (CypB) was found to be 0.4. In addition, the “CypA Kd” value at cyclophilin A (CypA) is 0.8. In addition, the figures for the pIC50 in test [2] and in test [3] were 6.54 and 5.70, respectively.
At CypF, `C/C=C/C[C@@H](C)[C@@H](O)[C@H]1C(=O)N[C@@H](CC)C(=O)N(C)[C@H](C)C(=O)N(C)[C@@H]([C@H](C)CN2CCO[C@H](COC)C2)C(=O)N[C@@H](C(C)C)C(=O)N(C)[C@@H](CC(C)C)C(=O)N[C@@H](C)C(=O)N[C@H](C)C(=O)N(C)[C@@H](CC(C)C)C(=O)N(C)[C@@H](CC(C)C)C(=O)N(C)[C@@H](C(C)C)C(=O)N1C` [Compound 2.5.34, 3-[D-Ala]-4-[(2S,3R)-4-((S)-2-(methoxymethyl)morpholino)-3-methyl-2-(methylamino)butanoyl]-cyclosporin] (cyclo(A[dA][NMeL][NMeL][NMeV][MeBmt][Abu][dNMeA][X64]V[NMeL])) registered a CypF Kd of 0.0006 µM. Moreover, the “CypB Kd” value on cyclophilin B (CypB) was determined as 0.6. Moreover, at cyclophilin A (CypA), the “CypA Kd” value is listed as 1.3. Besides, the values for the pIC50 in test [2] and in test [3] were 7.57 and 4.72, respectively.
The corresponding values for `C/C=C/C[C@@H](C)[C@@H](O)[C@H]1C(=O)N[C@@H](CC)C(=O)N(C)[C@H](C)C(=O)N(C)[C@@H]([C@H](C)COCCN2CCN3C(=O)OC[C@@H]3C2)C(=O)N[C@@H](C(C)C)C(=O)N(C)[C@@H](CC(C)C)C(=O)N[C@@H](C)C(=O)N[C@H](C)C(=O)N(C)[C@@H](CC(C)C)C(=O)N(C)[C@@H](CC(C)C)C(=O)N(C)[C@@H](C(C)C)C(=O)N1C` [Compound 2.8.11, 3-[D-Ala]-4-[(2S,3S)-3-methyl-2-(methylamino)-4-(2-((S)-3-oxotetrahydro-1H-oxazolo[3,4-a]pyrazin-7(3H)-yl)ethoxy)butanoyl]-cyclosporin] are 0.0005 µM, 0.6, 1.3, 7.24 and 4.91.
